This is an account of results in EP4104902B1, “COMPOUNDS AND M[…] SAME” (priority 2020, dated 2021).

In this test the test system is recombinant rabies virus 1088 strain expressing Gaussia Luciferase (GLuc) (1088/GLuc). The test is classed as cell-based. As to conditions: read-out: Anti-rabies activity.

Regarding `CCCCCCNC(=O)[C@@]12C[C@@H]3CN(CC(C)C)[C@@H]([C@@H]3CN1)[C@H]2CC(C)C` (relative stereo) [IF-569], the IC50 lay in the range of 10 to 30 µM. Then `CC(C)CN1C[C@H]2C[C@]3(C(=O)NCc4ccc(O)cc4)NC[C@H]2[C@H]1[C@H]3CCc1ccccc1` (relative stereo) [IF-576], with 10 to 30 µM; and `CC(C)C[C@@H]1[C@@H]2[C@@H]3CN[C@@]1(C(=O)NCc1cccc4ccccc14)C[C@@H]3CN2Cc1ccc(O)cc1` (relative stereo) [IF-578], with less than 5 µM. Then `O=C(NCCc1ccccc1)[C@@]12C[C@@H]3CN(Cc4ccc(O)cc4)[C@@H]([C@@H]3CN1)[C@H]2Cc1cccc2ccccc12` (relative stereo) [IF-580], with 10 to 30 µM; and `CCCCCCNC(=O)[C@@]12C[C@@H]3CN(CCC(C)C)[C@@H]([C@@H]3CN1)[C@H]2Cc1ccc(O)cc1` (relative stereo) [IF-583], with less than 5 µM. As to `CC(C)CCNC(=O)[C@@]12C[C@@H]3CN(Cc4ccc(F)cc4)[C@@H]([C@@H]3CN1)[C@H]2Cc1ccccc1` (relative stereo) [IF-584], the IC50 was less than 5 µM.

Regarding `CC(C)CCNC(=O)[C@@]12C[C@@H]3CN(Cc4ccc(F)cc4)[C@@H]([C@@H]3CN1)[C@H]2CC(C)C` (relative stereo) [IF-585], the IC50 was less than 5 µM. The value for `O=C(NCCc1ccccc1)[C@@]12C[C@@H]3CN(Cc4ccc(F)cc4)[C@@H]([C@@H]3CN1)[C@H]2Cc1ccccc1` (relative stereo) [IF-586] was 10 to 30 µM. In the case of `CC(C)NC(=O)[C@@]12C[C@@H]3CN(Cc4cccc5ccccc45)[C@@H]([C@@H]3CN1)[C@H]2Cc1cccc2ccccc12` (relative stereo) [IF-596], the IC50 is 10 to 30 µM.

On to `CCCCCCNC(=O)[C@@]12C[C@@H]3CN(CCC(C)C)[C@@H]([C@@H]3CN1)[C@H]2Cc1ccccc1` (relative stereo) [IF-599], for which the IC50 was 10 to 30 µM. For the molecule `CCCCCCNC(=O)[C@@]12C[C@@H]3CN(CCc4ccccc4)[C@@H]([C@@H]3CN1)[C@H]2Cc1ccccc1` (relative stereo) [IF-602], the IC50 is 10 to 30 µM. The value for `O=C(NCCO)[C@@]12C[C@@H]3CN(Cc4cccc5ccccc45)[C@@H]([C@@H]3CN1)[C@H]2Cc1ccccc1` (relative stereo) [IF-603] was 10 to 30 µM. As to `CC(C)C[C@@H]1[C@@H]2[C@@H]3CN[C@@]1(C(=O)NCCO)C[C@@H]3CN2Cc1cccc2ccccc12` (relative stereo) [IF-604], the IC50 lay within 10 to 30 µM. The value for `CC(C)C[C@@H]1[C@@H]2[C@@H]3CN[C@@]1(C(=O)NCCO)C[C@@H]3CN2CC1CCCCC1` (relative stereo) [IF-606] was 10 to 30 µM; that for `O=C(NCCc1ccccc1)[C@@]12C[C@@H]3CN(CCO)[C@@H]([C@@H]3CN1)[C@H]2Cc1cccc2ccccc12` (relative stereo) [IF-610] was 10 to 30 µM. Then `CC(C)CCN1C[C@H]2C[C@]3(C(=O)NCCO)NC[C@H]2[C@H]1[C@H]3Cc1cccc2ccccc12` (relative stereo) [IF-611], with 10 to 30 µM.

For the molecule `O=C(NCCO)[C@@]12C[C@@H]3CN(CCc4ccccc4)[C@@H]([C@@H]3CN1)[C@H]2Cc1cccc2ccccc12` (relative stereo) [IF-612], the IC50 fell in the range of 10 to 30 µM. Then `CC(C)CC[C@@H]1[C@@H]2[C@@H]3CN[C@@]1(C(=O)NCCO)C[C@@H]3CN2Cc1cccc2ccccc12` (relative stereo) [IF-613], with 10 to 30 µM. The value for `O=C(NCCO)[C@@]12C[C@@H]3CN(Cc4cccc5ccccc45)[C@@H]([C@@H]3CN1)[C@H]2Cc1cccc2ccccc12` (relative stereo) [IF-614] was 10 to 30 µM; that for `O=C(NCCO)[C@@]12C[C@@H]3CN(CC4CCCCC4)[C@@H]([C@@H]3CN1)[C@H]2Cc1cccc2ccccc12` (relative stereo) [IF-619] was 10 to 30 µM. `O=C(NCCO)[C@@]12C[C@@H]3CN(Cc4ccc(F)cc4)[C@@H]([C@@H]3CN1)[C@H]2Cc1cccc2ccccc12` (relative stereo) [IF-620]: the IC50 was less than 5 µM. Then `O=C(NCCO)[C@@]12C[C@@H]3CN(Cc4ccccc4)[C@@H]([C@@H]3CN1)[C@H]2Cc1cccc2ccccc12` (relative stereo) [IF-624], with 10 to 30 µM. Then `CC(C)CCN1C[C@H]2C[C@]3(C(=O)NCC(C)C)NC[C@H]2[C@H]1[C@H]3CCc1ccccc1` (relative stereo) [IF-635], with 10 to 30 µM. Regarding `CC(C)C[C@@H]1[C@@H]2[C@@H]3CN[C@@]1(C(=O)NCc1ccccc1)C[C@@H]3CN2CCc1ccccc1` (relative stereo) [IF-639], the IC50 was less than 5 µM.

For `O=C(NCc1ccccc1)[C@@]12C[C@@H]3CN(CCc4ccccc4)[C@@H]([C@@H]3CN1)[C@H]2Cc1ccc(O)cc1` (relative stereo) [IF-640], the IC50 is 10 to 30 µM. With `CC(C)CNC(=O)[C@@]12C[C@@H]3CN(CCc4ccccc4)[C@@H]([C@@H]3CN1)[C@H]2Cc1ccccc1` (relative stereo) [IF-641], the IC50 is less than 5 µM. Then `CC(C)C[C@@H]1[C@@H]2[C@@H]3CN[C@@]1(C(=O)NCc1ccccc1)C[C@@H]3CN2CC1CCCCC1` (relative stereo) [IF-644], with less than 5 µM; and `O=C(NCc1ccccc1)[C@@]12C[C@@H]3CN(CC4CCCCC4)[C@@H]([C@@H]3CN1)[C@H]2Cc1ccc(O)cc1` (relative stereo) [IF-645], with 10 to 30 µM. The value for `CC(C)CNC(=O)[C@@]12C[C@@H]3CN(CC4CCCCC4)[C@@H]([C@@H]3CN1)[C@H]2Cc1cccc2ccccc12` (relative stereo) [IF-646] was less than 5 µM; that for `O=C(NCc1ccccc1)[C@@]12C[C@@H]3CN(Cc4ccc(F)cc4)[C@@H]([C@@H]3CN1)[C@H]2Cc1ccccc1` (relative stereo) [IF-649] was less than 5 µM. Then `CC(C)C[C@@H]1[C@@H]2[C@@H]3CN[C@@]1(C(=O)NCc1ccccc1)C[C@@H]3CN2Cc1ccc(F)cc1` (relative stereo) [IF-650], with less than 5 µM; and `CC(C)CNC(=O)[C@@]12C[C@@H]3CN(Cc4ccc(F)cc4)[C@@H]([C@@H]3CN1)[C@H]2CCc1ccccc1` (relative stereo) [IF-652], with less than 5 µM. Consider `CC(C)CNC(=O)[C@@]12C[C@@H]3CN(Cc4ccc(F)cc4)[C@@H]([C@@H]3CN1)[C@H]2Cc1ccccc1` (relative stereo) [IF-653], for which the IC50 lay in the range of 10 to 30 µM. Then `CC(C)CNC(=O)[C@@]12C[C@@H]3CN(Cc4ccc(F)cc4)[C@@H]([C@@H]3CN1)[C@H]2CC(C)C` (relative stereo) [IF-654], with less than 5 µM; and `CC(C)CCNC(=O)[C@@]12C[C@@H]3CN(CCO)[C@@H]([C@@H]3CN1)[C@H]2Cc1ccccc1` (relative stereo) [IF-656], with 10 to 30 µM; and `CC(C)CCNC(=O)[C@@]12C[C@@H]3CN(CCc4ccccc4)[C@@H]([C@@H]3CN1)[C@H]2CC(C)C` (relative stereo) [IF-657], with less than 5 µM. Then `CC(C)CCNC(=O)[C@@]12C[C@@H]3CN(CC4CCCCC4)[C@@H]([C@@H]3CN1)[C@H]2Cc1ccccc1` (relative stereo) [IF-658], with less than 5 µM; and `CC(C)CCNC(=O)[C@@]12C[C@@H]3CN(CC4CCCCC4)[C@@H]([C@@H]3CN1)[C@H]2CC(C)C` (relative stereo) [IF-659], with 10 to 30 µM; and `CC(C)CCNC(=O)[C@@]12C[C@@H]3CN(CCO)[C@@H]([C@@H]3CN1)[C@H]2Cc1cccc2ccccc12` (relative stereo) [IF-660], with 10 to 30 µM. Then `CC(C)CCNC(=O)[C@@]12C[C@@H]3CN(Cc4ccccc4)[C@@H]([C@@H]3CN1)[C@H]2Cc1ccccc1` (relative stereo) [IF-665], with less than 5 µM; and `CC(C)CNC(=O)[C@@]12C[C@@H]3CN(Cc4ccccc4)[C@@H]([C@@H]3CN1)[C@H]2CCc1ccccc1` (relative stereo) [IF-670], with less than 5 µM; and `CC(C)CCNC(=O)[C@@]12C[C@@H]3CN(CC(C)C)[C@@H]([C@@H]3CN1)[C@H]2CCc1ccccc1` (relative stereo) [IF-673], with less than 5 µM.

`CC(C)CCNC(=O)[C@@]12C[C@@H]3CN(CC(C)C)[C@@H]([C@@H]3CN1)[C@H]2Cc1cccc2ccccc12` (relative stereo) [IF-674]: the IC50 fell in the range of 10 to 30 µM.

Turning to `CC(C)CC[C@@H]1[C@@H]2[C@@H]3CN[C@@]1(C(=O)NCc1ccccc1)C[C@@H]3CN2CC(C)C` (relative stereo) [IF-675], the IC50 is less than 5 µM.

Consider `CC(C)CNC(=O)[C@@]12C[C@@H]3CN(CC(C)C)[C@@H]([C@@H]3CN1)[C@H]2CCc1ccccc1` (relative stereo) [IF-679], for which the IC50 is less than 5 µM. The value for `CC(C)CNC(=O)[C@@]12C[C@@H]3CN(CC(C)C)[C@@H]([C@@H]3CN1)[C@H]2Cc1cccc2ccccc12` (relative stereo) [IF-680] was 10 to 30 µM; that for `CC(C)CCNC(=O)[C@@]12C[C@@H]3CN(Cc4ccc(O)cc4)[C@@H]([C@@H]3CN1)[C@H]2Cc1cccc2ccccc12` (relative stereo) [IF-684] was 10 to 30 µM. Then `CC(C)CCNC(=O)[C@@]12C[C@@H]3CN(Cc4ccccc4)[C@@H]([C@@H]3CN1)[C@H]2CC(C)C` (relative stereo) [IF-691], with 10 to 30 µM.

Take `CCCCCCNC(=O)[C@@]12C[C@@H]3CN(Cc4ccccc4)[C@@H]([C@@H]3CN1)[C@H]2Cc1ccc(O)cc1` (relative stereo) [IF-692]: the IC50 was less than 5 µM. The value for `CC(C)C[C@@H]1[C@@H]2[C@@H]3CN[C@@]1(C(=O)NCCC(N)=O)C[C@@H]3CN2CCc1ccccc1` (relative stereo) [IF-699] was 10 to 30 µM. Then `CC(C)CCN1C[C@H]2C[C@]3(C(=O)NCc4cccc5ccccc45)NC[C@H]2[C@H]1[C@H]3CC(C)C` (relative stereo) [IF-705], with less than 5 µM; and `CC(C)CCN1C[C@H]2C[C@]3(C(=O)NCc4cccc5ccccc45)NC[C@H]2[C@H]1[C@H]3Cc1ccc(O)cc1` (relative stereo) [IF-706], with less than 5 µM; and `CC(C)CCNC(=O)[C@@]12C[C@@H]3CN(CCc4ccccc4)[C@@H]([C@@H]3CN1)[C@H]2Cc1ccc(O)cc1` (relative stereo) [IF-707], with less than 5 µM.
